The record followed here is EPA's ToxValDB 9.5 (doi:10.2903/j.efsa.2017.4887).

Converted amounts (≈) assume the structure as drawn.

In one data set the test system is Oncorhynchus mykiss. As to conditions: acute; duration: 96 hours; mortality.
The next data set has as its system Folsomia candida. To be noted: chronic/long-term; duration: 28 days; reproduction.
Another data set relates to Aphidius rhopalosiphi. Briefly: LR50; higher = less toxic. As to conditions: not reported; mortality.
Another data set concerns Colinus virginianus. As to conditions: acute; oral; mortality.
The test system of a further data set is Apis mellifera. As to conditions: acute, mortality.
In a further data set the test system is Bibionidae. As to conditions: chronic/long-term; duration: 28 days; other.
In another data set the test system is Anas platyrhynchos. As to conditions: reproductive.
In the next data set the test system is Hypoaspis aculeifer. As to conditions: chronic/long-term; reproduction.
In another data set the test system is Cyprinodon variegatus. As to conditions: chronic/long-term; duration: 100 days; reproduction.
For another data set, the system named is Argyrosomus sp. As to conditions: acute; duration: 96 hours; mortality.
For the next data set, the system named is Pleurozium sp. To be noted: acute; duration: 72 hours; growth.

`O=C(O)[C@@H]1CO[C@@](Cn2cncn2)(c2ccc(Cl)cc2Cl)O1` (racemic): in the data set on Oncorhynchus mykiss, the LC50 (as a rule, the concentration that kills 50% of the test population) is more than 100 µg/mL. The same molecule registered an NOEC with Folsomia candida of 1000 mg/kg.
Consider `CCCC1COC(Cn2cncn2)(c2ccc(Cl)cc2Cl)O1` (centres undefined) [Propiconazole], for which the LR50 with Aphidius rhopalosiphi is more than 250 g/ha. The LD50 is not below 2510 mg/kg-day with Colinus virginianus; 46.3 µg/piece in the data set with Apis mellifera (dermal); 203 µg/piece with Apis mellifera (oral, unspecified); 550 mg/kg-day in the data set with Rattus norvegicus (acute, oral, mortality). Besides, the NOEC was 4 mg/L in the data set on Bibionidae; 22.4 mg/kg in the data set with Hypoaspis aculeifer; 0.114 mg/L in the data set with Neomysis kadiakensis (chronic/long-term, duration: 28 days, reproduction); 0.068 mg/L in the data set with Cyprinodon variegatus. Also, the NOAEL (usually the highest tested level that showed no adverse finding) was 25.5 mg/kg-day in the data set on Anas platyrhynchos; 3.6 mg/kg-day in the data set on Rattus norvegicus (chronic, duration: 2 years, organ weight); 30 mg/kg-day with Rattus norvegicus (developmental, development); 8.4 mg/kg-day with Rattus norvegicus (reproduction developmental, histopathology: nonneoplastic). The LC50 is 0.51 µg/mL (≈ 1.49 µM) in the data set with Neomysis kadiakensis (acute, duration: 96 hours, mortality) and 2.6 µg/mL (≈ 7.6 µM) in the data set with Argyrosomus sp..
Take `O=C(O)[C@H]1CO[C@@](Cn2cncn2)(c2ccc(Cl)cc2Cl)O1` (racemic): the NOEC is 112 mg/L in the data set on Pleurozium sp. and 1000 mg/kg in the data set on Folsomia candida.
